Where two headings read alike, the source gives them in different places.
Experiments:
integrin α6/β4 = assay: Western blotting of integrin α6/β4 on PDAC-derived EVs; type: cell-based, human; settings: EVs derived from BxPC-3 and PANC-1 cells; short-term treatment
BxPC-3 cell-derived EVs = assay: NanoFCM analysis of EV subpopulations from BxPC-3 cells; type: cell-based, human
Description: EV samples containing 3×10^9 particles were incubated with diluted antibodies (1:1000), including FITC-anti-CD9 antibodies, PE-anti-CD63 antibodies, and APC-anti-integrin β4 antibodies, for 30 minutes in a 37° C. water bath. Following the incubation period, an Amicon® Ultra Centrifugal Filter with a 100 kDa molecular weight cutoff (MWCO) was used and rinsed with 1× PBS buffer. The samples were centrifuged at 4000×g for 5 minutes, with the centrifugation process repeated three times. After centrifugation, the samples were retrieved and diluted 10-100 times for detecting the expression levels of EV surface proteins by NanoFCM. The results were analyzed using Kaluza Analysis Software.

[1] = target: T1, EGFR-MET protein-protein interactions (Homo sapiens, UniProt P00533+P08581); type: cell-based; settings: HSC3; pre-treatment 15 μM 30 min, then EGF 10 ng/mL 15 min
T1 construct: endogenous in cells; host or cells: HSC3 cells

[2] = tested on: 3R-4 and 3R-5-1 tumoroids; assay: Protein expression in pancreatic cancer patient-derived tumoroids (western blotting, immunofluorescence); type: cell-based, human; settings: 72-hour treatment
[3] = tested on: integrin α6/β4 on BxPC-3-derived EVs; assay: Laminin coating wound healing assay with BxPC-3-derived EVs; type: cell-based, human; settings: laminin coating 1 μg/cm^2; EVs from PCP-treated BxPC-3 cells
Description: The culture inserts (ibidi, #80209) was put on 6 well dishes (2 inserts for each well), irradiated UV for 20 minutes and cells were seeded into the well of the insert and incubating 24 hours. The insert was removed gently and washed twice with PBS to remove the old medium and cell and be observed the gap which was formed by the insert through the microscope and captured the picture of the gap at 0 hours. After I captured of the gap, different treatments were added and incubated for 16 hours. The result was observed by the microscope and quantified by Image J.
In this assay, H6C7 cells were seeded in the wound healing inserts with or without 1 μg/cm^2 laminin coating in the six-well plate. Once the cells were attached, the wound healing inserts were removed, and H6C7 cells were exposed to BxPC-3-derived EVs and PCP-treated BxPC-3 cell-derived EVs.

[4] = target: T2, EGFR-p-EGFR protein-protein interactions (Homo sapiens, UniProt P00533); assay: Proximity ligation assay in PDAC cells (BxPC-3); type: cell-based; set-up: endogenous in cells; settings: pre-treatment 15 μM 30 min, then EGF 10 ng/mL 15 min
T2 sequence (P00533 25-1210): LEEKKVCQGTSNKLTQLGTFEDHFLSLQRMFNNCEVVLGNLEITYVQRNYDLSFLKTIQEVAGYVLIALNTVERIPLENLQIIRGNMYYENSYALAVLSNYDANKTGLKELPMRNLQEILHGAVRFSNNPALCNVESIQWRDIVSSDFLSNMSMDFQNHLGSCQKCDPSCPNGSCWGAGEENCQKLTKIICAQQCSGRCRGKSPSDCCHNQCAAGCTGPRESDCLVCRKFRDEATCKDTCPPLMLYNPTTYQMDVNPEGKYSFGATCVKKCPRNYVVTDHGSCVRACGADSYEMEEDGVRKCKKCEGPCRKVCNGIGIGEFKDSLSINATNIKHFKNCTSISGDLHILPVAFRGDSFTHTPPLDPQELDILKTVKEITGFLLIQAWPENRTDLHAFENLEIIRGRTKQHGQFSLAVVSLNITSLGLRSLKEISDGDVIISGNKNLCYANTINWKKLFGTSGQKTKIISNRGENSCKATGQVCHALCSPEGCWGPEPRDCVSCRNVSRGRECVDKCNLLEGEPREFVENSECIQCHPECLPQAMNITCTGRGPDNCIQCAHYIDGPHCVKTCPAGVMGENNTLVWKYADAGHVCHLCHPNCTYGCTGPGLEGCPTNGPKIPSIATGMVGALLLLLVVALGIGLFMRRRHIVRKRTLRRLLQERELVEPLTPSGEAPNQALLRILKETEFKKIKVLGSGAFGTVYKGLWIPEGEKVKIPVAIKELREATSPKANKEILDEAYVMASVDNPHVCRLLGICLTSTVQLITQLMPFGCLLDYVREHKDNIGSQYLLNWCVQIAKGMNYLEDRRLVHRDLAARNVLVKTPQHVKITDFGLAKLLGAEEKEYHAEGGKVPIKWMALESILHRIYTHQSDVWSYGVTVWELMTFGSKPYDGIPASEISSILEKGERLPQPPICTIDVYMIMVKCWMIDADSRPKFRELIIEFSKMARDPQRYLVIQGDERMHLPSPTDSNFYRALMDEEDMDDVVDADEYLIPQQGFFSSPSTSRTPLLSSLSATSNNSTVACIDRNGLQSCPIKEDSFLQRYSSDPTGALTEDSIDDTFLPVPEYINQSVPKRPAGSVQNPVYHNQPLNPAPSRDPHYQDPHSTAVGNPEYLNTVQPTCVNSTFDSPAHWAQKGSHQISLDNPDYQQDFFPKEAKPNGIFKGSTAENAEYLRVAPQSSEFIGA

AKT activation [5] = assay: Western blotting of AKT activation in PDAC cells; type: cell-based, human; settings: 20 μM, 6 hours
Description: Cells or EVs were lysed in RIPA lysis buffer (containing 50 mM Tris-HCl, 1% NP-40, 150 mM NaCl, 0.1% SDS, 1 mM PMSF, 1 mM Na3VO4) with complete protease and […] (1:1000) (Sigma-Aldrich). The protein quantitation is analyzed by comparing to 2 mg/ml Bovine serum albumin (BSA). Prepare the cell sample with one-tenth of dilution and the EV sample without dilution. Next, prepare all sample to 30 ul then put 10 μl each well in 96-well plates. Protein concentrations were then determined using the BCA assay kit (Thermo, USA) according to the manufacturer's instructions. Then, the same amounts of protein lysates from cells and EVs were loaded onto 8-12% SDS polyacrylamide gels and subjected to electrophoresis at 80-100 V, followed by transferring the proteins to 0.22 or 0.45 μm poly-vinylidene fluoride membranes (Millipore). The membranes were blocked with 5% skimmed milk in […] (Tris-buffered saline containing Tween-20) for 1 h at room temperature and then washed 3 times (10 minutes for each time) with TBST (1M Tris-HCL pH7.5, NaCl, Tween 20 in ddH2O). After the step of washing, probed with antibodies specific for EV-enriched markers at […] overnight. […] The membrane was exposed using enhanced chemiluminescence reagents and analyzed using the Fujifilm LAS4000 luminescent image analysis system. […]

BxPC-3 cells = assay: Laminin-induced cell proliferation (SRB); type: cell-based, human; settings: 48 hours
AKT activation [6] = assay: Western blotting of AKT activation in NSCLC cells (A549); type: cell-based, human; settings: 15 μM 30 min, pre-treatment and post-treatment, EGF 10 ng/mL 15 min
BEAS-2B and CL141 cells = assay: Transwell cell migration with NSCLC-derived secretomes and EVs; type: cell-based, human
[7] = target: T2, EGFR-p-EGFR protein-protein interactions; type: cell-based; set-up: endogenous in cells; host or cells: HSC3 and SAS cells; settings: HSC3 and SAS; pre-treatment 15 μM 30 min, then EGF 10 ng/mL 15 min
[8] = target: T3, EGFR-HER2 protein-protein interactions (Homo sapiens, UniProt P00533+P04626); type: cell-based; settings: HSC3 and SAS; pre-treatment 15 μM 30 min, then EGF 10 ng/mL 15 min
T3 construct: endogenous in cells; host or cells: HSC3 and SAS cells
T3 sequence (P00533 25-1210): as above
T3 sequence (P04626 23-1255): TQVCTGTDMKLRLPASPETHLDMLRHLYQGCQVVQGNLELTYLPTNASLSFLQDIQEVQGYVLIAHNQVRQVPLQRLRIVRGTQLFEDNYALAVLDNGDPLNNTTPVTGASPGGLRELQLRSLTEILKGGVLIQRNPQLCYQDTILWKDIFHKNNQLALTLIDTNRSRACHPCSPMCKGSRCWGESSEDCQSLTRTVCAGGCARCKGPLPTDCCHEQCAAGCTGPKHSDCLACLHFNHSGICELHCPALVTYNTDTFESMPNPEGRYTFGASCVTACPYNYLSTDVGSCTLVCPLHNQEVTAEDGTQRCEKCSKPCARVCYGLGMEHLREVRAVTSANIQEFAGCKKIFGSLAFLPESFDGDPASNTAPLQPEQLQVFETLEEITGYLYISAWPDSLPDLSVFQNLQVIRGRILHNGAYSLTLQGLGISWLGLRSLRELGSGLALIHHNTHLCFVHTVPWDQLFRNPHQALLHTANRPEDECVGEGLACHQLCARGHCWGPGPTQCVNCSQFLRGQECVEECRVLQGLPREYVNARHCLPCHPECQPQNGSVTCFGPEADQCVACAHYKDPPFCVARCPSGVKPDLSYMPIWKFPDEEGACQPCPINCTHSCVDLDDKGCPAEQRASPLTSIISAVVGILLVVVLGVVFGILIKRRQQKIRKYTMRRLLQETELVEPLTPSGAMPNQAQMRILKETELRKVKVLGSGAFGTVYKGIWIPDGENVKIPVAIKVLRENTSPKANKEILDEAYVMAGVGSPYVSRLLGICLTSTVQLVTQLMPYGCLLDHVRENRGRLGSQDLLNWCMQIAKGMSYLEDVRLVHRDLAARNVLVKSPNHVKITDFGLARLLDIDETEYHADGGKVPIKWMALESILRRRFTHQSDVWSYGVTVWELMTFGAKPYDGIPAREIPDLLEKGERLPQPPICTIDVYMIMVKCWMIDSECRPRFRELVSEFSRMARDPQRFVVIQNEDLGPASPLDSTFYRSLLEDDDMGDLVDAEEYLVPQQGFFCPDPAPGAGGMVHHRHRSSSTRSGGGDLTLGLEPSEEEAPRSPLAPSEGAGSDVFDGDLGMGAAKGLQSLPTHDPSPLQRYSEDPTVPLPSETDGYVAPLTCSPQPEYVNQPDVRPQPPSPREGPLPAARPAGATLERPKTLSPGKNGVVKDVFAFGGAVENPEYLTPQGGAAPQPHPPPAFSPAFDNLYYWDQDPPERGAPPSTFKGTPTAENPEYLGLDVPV

[9] = tested on: H6C7 cells and WI-38 cells; assay: Co-culture cell migration with PDAC-derived secretomes; type: cell-based, human
Description: In the transwell migration assay, cells were seeded in upper chambers of Transwell plates (Transwell® Permeable Support, 6.5 mm insert, 24 well plate, 8.0 μm pore polyester membrane with sterile, Corning, #3464) in serum-free (SF) medium and seeded 5×10^4-1×10^5 cells per well, while lower chambers were added medium with 10% FBS as an attractant. Drugs were treated in both upper and lower chambers, and incubated on the 24-well plate at 37° C. for 16-24 hours. The cells were fix with 4% paraformaldehyde (PFA, SIGMA, #F8775) for 10 minutes and staining with 1% crystal violet (MERCK, 1 g Crystal violet powder dissolved in 75 ml ddH2O and 25 ml […] then filters by 0.45 μm filter) for 0.5 hours. After drying the insert completely, take at least 3 cell pictures randomly in every sample by microscope and count the number of cells by Image J.
To initiate this exploration, a transwell migration assay in vitro was performed to assess the migration ability of PDAC cells. […] To achieve this, a co-culture cell migration system was established to examine the behavioral changes in normal cells treated with PDAC-derived secretomes.
For the cell line selection, the H6C7 cell line, derived from normal human pancreatic duct epithelial (HPDE) cells and immortalized, was employed to investigate the interactions between PDAC cells and human pancreatic duct cells. This cell line serves as a valuable tool for studying the molecular and cellular interactions that occur between PDAC cells and their surrounding pancreatic ductal epithelial cells. Additionally, to simulate the lung tissue environment and validate PDAC cells with high metastatic potential to the lung, human lung fibroblasts known as WI-38 cells were chosen as a relative normal cell model. By utilizing this model, the interactions between PDAC cells and the lung microenvironment can be examined and assessed.

[10] = tested on: PDAC cells (BxPC-3, PANC-1, AsPC-1); assay: Transwell migration assay of PDAC cells; type: cell-based, human; settings: compared to gemcitabine treatment
[11] = 3R-4 tumoroids, western blotting

EGFR-p-EGFR protein-protein interactions [4]: could suppress
SMILES: CN1CCN(CCCN2c3ccccc3Sc3ccc(Cl)cc32)CC1 [PCP, Prochlorperazine]
integrin α6/β4 protein expression on EVs (integrin α6/β4): inhibited integrin α6/β4 protein expression | co-expression levels of CD9 and integrin β4 proteins on ITGB4+CD9+ EVs (BxPC-3 cell-derived EVs): downregulated | secretion of CD9-EVs (BxPC-3 cell-derived EVs): significantly downregulated | secretion of CD63-EVs (BxPC-3 cell-derived EVs): upregulating | secretion of ITGB4+CD9+ EVs (BxPC-3 cell-derived EVs): significantly suppressed | EGFR-MET protein-protein interactions [1]: could suppress EGFR-MET protein-protein interactions | expression levels of CD9 and integrin β4 ([2]; 3R-4 and 3R-5-1 tumoroids, immunofluorescence): also inhibited the expression levels of CD9 and integrin β4 | expression levels of GPC1 [2, 11]: unchanged expression levels of GPC1 | expression levels of integrin α6/β4, CD9, EGFR, HER2, HER3 [2, 11]: inhibited the expression levels | functional activity of integrin α6/β4 on EVs (migration of H6C7 cells) [3]: significantly inhibited | AKT activation (AKT activation [5]): suppressed AKT activation | laminin-induced cell proliferation rate (BxPC-3 cells; 1 μg/cm^2 laminin): reversed the increased cell proliferation rate | drug sensitivity to PCP after laminin binding (BxPC-3 cells; compared to the vehicle group): significantly higher increase in drug sensitivity | AKT activation (AKT activation [6]): effectively suppressed AKT activation | migratory capability induced by NSCLC-derived secretomes (BEAS-2B and CL141 cells; BEAS-2B and CL141, secretomes from H441 cells): inhibitory effect | migratory capability induced by NSCLC-derived EVs (BEAS-2B and CL141 cells; treated cells with NSCLC-derived EVs): could downregulate this increased migratory capability | EGFR-p-EGFR protein-protein interactions [7]: could suppress EGFR-p-EGFR protein-protein interactions | EGFR-HER2 protein-protein interactions [8]: could suppress EGFR-HER2 protein-protein interactions | migratory capability of WI-38 cells ([9]; AsPC-1-derived secretomes): comparatively weaker effect | migratory capability of WI-38 cells ([9]; BxPC-3-derived secretomes): strongest inhibition | migratory capability of WI-38 cells ([9]; PANC-1-derived secretomes): least effect | migratory behavior of H6C7 cells ([9]; co-culture with BxPC-3-derived secretomes): significantly suppressed | migration ability of PDAC cells [10]: significantly suppressed

Source: US20250044294A1, “COMPOSITION AND METHOD OF TREATING A CANCER THROUGH AFFECTING MEMBRANE RECEPTORS OF CANCER CELLS AND THEIR DERIVED EXTRACELLULAR VESICLES” (National Yang Ming Chiao Tung University, priority 2023, published 2025)
